Test results as given in article PMC6366416, “Synthesis and in vitro anticancer activity of certain novel 1-(2-methyl-6-arylpyridin-3-yl)-3-phenylureas as apoptosis-inducing agents” (Journal of Enzyme Inhibition and Medicinal Chemistry, 2019).

Experiments:
786-0 = test: NCI one-dose SRB growth inhibition; type: cell-based; conditions: Homo sapiens, Renal Cancer, 48 h, read-out: GI% 786-0
Method: (§1) The antitumor assay was performed according to the protocol of the Drug Evaluation Branch, NCI, Bethesda[24–26]. A 48 h drug exposure protocol was adopted, and sulforhodamine B (SRB) assay[27] was utilized to assess the cell growth and viability, as reported earlier[17]^,[28].
(§2) The structures of all the newly synthesized pyridines 5a–l were submitted to the National Cancer Institute (NCI) Developmental Therapeutic Program (www.dtp.nci.nih.gov). […] Nine different types of cancer were tested in this assay: colon, ovarian, prostate, leukemia, melanoma, CNS, renal, breast and lung cancers. A 48 h drug exposure protocol was adopted, and sulforhodamine B (SRB) assay[27] was utilized to assess the cell growth and viability.

EKVX = test: NCI one-dose SRB growth inhibition; type: cell-based; conditions: Homo sapiens, Non-Small Cell Lung Cancer, 48 h, read-out: GI% EKVX
Method: as §1, §2

HCC-2998 = test: NCI one-dose SRB growth inhibition; type: cell-based; conditions: Homo sapiens, Colon Cancer, 48 h, read-out: GI% HCC-2998
Method: as §1, §2

HCT-116 = test: NCI one-dose SRB growth inhibition; type: cell-based; conditions: Homo sapiens, HCT-116, 48 h, Colon Cancer, read-out: GI% HCT-116
Method: as §1, §2

HCT-15 = test: NCI one-dose SRB growth inhibition; type: cell-based; conditions: Homo sapiens, HCT-15, 48 h, Colon Cancer, read-out: GI% HCT-15
Method: as §1, §2

HL-60(TB) = test: NCI one-dose SRB growth inhibition; type: cell-based; conditions: Homo sapiens, Leukemia, 48 h, read-out: GI% HL-60(TB)
Method: as §1, §2

HOP-62 = test: NCI one-dose SRB growth inhibition; type: cell-based; conditions: Homo sapiens, Non-Small Cell Lung Cancer, 48 h, read-out: GI% HOP-62
Method: as §1, §2

HS 578T = test: NCI one-dose SRB growth inhibition; type: cell-based; conditions: Homo sapiens, Breast Cancer, 48 h, read-out: GI% HS 578T
Method: as §1, §2

HT29 = test: NCI one-dose SRB growth inhibition; type: cell-based; conditions: Homo sapiens, HT-29, 48 h, Colon Cancer, read-out: GI% HT29
Method: as §1, §2

K-562 = test: NCI one-dose SRB growth inhibition; type: cell-based; conditions: Homo sapiens, K562, 48 h, Leukemia, read-out: GI% K-562
Method: as §1, §2

MALME-3M = test: NCI one-dose SRB growth inhibition; type: cell-based; conditions: Homo sapiens, Melanoma, 48 h, read-out: GI% MALME-3M
Method: as §1, §2

MCF7 = test: NCI one-dose SRB growth inhibition; type: cell-based; conditions: Homo sapiens, Breast Cancer, 48 h, read-out: GI% MCF7
Method: as §1, §2

MDA-MB-231 = test: NCI one-dose SRB growth inhibition; type: cell-based; conditions: Homo sapiens, Breast Cancer, 48 h, read-out: GI% MDA-MB-231
Method: as §1, §2

MDA-MB-468 = test: NCI one-dose SRB growth inhibition; type: cell-based; conditions: Homo sapiens, Breast Cancer, 48 h, read-out: GI% MDA-MB-468
Method: as §1, §2

NCI-H322M = test: NCI one-dose SRB growth inhibition; type: cell-based; conditions: Homo sapiens, Non-Small Cell Lung Cancer, 48 h, read-out: GI% NCI-H322M
Method: as §1, §2

OVCAR-3 = test: NCI one-dose SRB growth inhibition; type: cell-based; conditions: Homo sapiens, OVCAR-3, 48 h, Ovarian Cancer, read-out: GI% OVCAR-3
Method: as §1, §2

OVCAR-4 = test: NCI one-dose SRB growth inhibition; type: cell-based; conditions: Homo sapiens, Ovarian Cancer, 48 h, read-out: GI% OVCAR-4
Method: as §1, §2

SF-268 = test: NCI one-dose SRB growth inhibition; type: cell-based; conditions: Homo sapiens, CNS Cancer, 48 h, read-out: GI% SF-268
Method: as §1, §2

SF-295 = test: NCI one-dose SRB growth inhibition; type: cell-based; conditions: Homo sapiens, CNS Cancer, 48 h, read-out: GI% SF-295
Method: as §1, §2

SK-MEL-28 = test: NCI one-dose SRB growth inhibition; type: cell-based; conditions: Homo sapiens, Melanoma, 48 h, read-out: GI% SK-MEL-28
Method: as §1, §2

SNB-19 = test: NCI one-dose SRB growth inhibition; type: cell-based; conditions: Homo sapiens, CNS Cancer, 48 h, read-out: GI% SNB-19
Method: as §1, §2

TK-10 = test: NCI one-dose SRB growth inhibition; type: cell-based; conditions: Homo sapiens, Renal Cancer, 48 h, read-out: GI% TK-10
Method: as §1, §2

U251 = test: NCI one-dose SRB growth inhibition; type: cell-based; conditions: Homo sapiens, U-251, CNS Cancer, 48 h, read-out: GI% U251
Method: as §1, §2

A549 cell line = test: MTT anti-proliferative assay; type: cell-based; conditions: Homo sapiens, 48 h of incubation, mean ± SD of three experiments
Method: (§3) A549 (non-small cell lung cancer cell line) and HCT-116 (human colon cancer cell line), were obtained from American Type Culture Collection (Manassas, VA, USA). The cells were maintained in Dulbecco’s Modified Eagle’s Medium (DMEM) (Sigma-Aldrich, St. Louis, MO), and supplemented with 10% heat-inactivated FBS (Hyclone), 10 μg/mL of insulin (Manufacturer, Sigma, St. Louis, MO, USA), and 1% penicillin-streptomycin. MTT assay[29] was adopted to assess the in vitro antitumor activity of the newly synthesized pyridines 5a–l according to the reported procedures, using Doxorubicin as a standard treatment. Experimental conditions were tested using three replicates (three wells of the 96-well plate per experimental condition) and all experiments were carried out in triplicates. IC50 values were calculated by the use of the equation for Boltzman sigmoidal concentration–response curve using the nonlinear regression fitting models by Graph Pad, Prism version 5 (GraphPad Software Inc., La Jolla, CA).
(§4) All newly synthesized pyridines 5a–l were examined for their anti-proliferative activity towards two cancer cell lines: non-small cell lung cancer A549 cell line and colon cancer HCT-116 cell line. The MTT colorimetric assay was adopted to assess the anti-proliferative activity as described by Mosmann[29]. Doxorubicin was used as a control in this assay.

HCT-116 cell line = test: MTT anti-proliferative assay; type: cell-based; conditions: Homo sapiens, 48 h of incubation, mean ± SD of three experiments
Method: as §3, §4

WI-38 cell line = test: MTT cytotoxicity towards non-tumorigenic cells; type: cell-based, human; conditions: for IC50: WI-38, MTT, non-tumorigenic human lung fibroblast, mean ± SD of three experiments; for S. I. WI-38/A549: selectivity index, IC50 WI-38 / IC50 A549
Method: The cytotoxic activity of all synthesized pyridines 5a–l were assessed against non-tumorigenic human lung fibroblast WI-38 cell line to investigate their safety, using the MTT colorimetric assay.

Compound	inhibition at 10 µM (786-0) [%]	inhibition at 10 µM (EKVX) [%]	inhibition at 10 µM (HCC-2998) [%]	inhibition at 10 µM (HCT-116) [%]	inhibition at 10 µM (HCT-15) [%]	inhibition at 10 µM (HL-60(TB)) [%]	inhibition at 10 µM (HOP-62) [%]	inhibition at 10 µM (HS 578T) [%]	inhibition at 10 µM (HT29) [%]	inhibition at 10 µM (K-562) [%]	inhibition at 10 µM (MALME-3M) [%]	inhibition at 10 µM (MCF7) [%]	inhibition at 10 µM (MDA-MB-231) [%]	inhibition at 10 µM (MDA-MB-468) [%]	inhibition at 10 µM (NCI-H322M) [%]	inhibition at 10 µM (OVCAR-3) [%]	inhibition at 10 µM (OVCAR-4) [%]	inhibition at 10 µM (SF-268) [%]	inhibition at 10 µM (SF-295) [%]	inhibition at 10 µM (SK-MEL-28) [%]	also measured
Cc1nc(-c2ccc(Cl)cc2)ccc1NC(=O)Nc1cccc(C(F)(F)F)c1 [Compound 5e, 1-(6-(4-Chlorophenyl)-2-methylpyridin-3-yl)-3-(3-(trifluoromethyl)phenyl)urea]	< 10	< 10	< 10	26	18	21	< 10	< 10	25	20	< 10	20	< 10	< 10	< 10	< 10	< 10	< 10	< 10	< 10	inhibition at 10 µM (SNB-19): < 10%; inhibition at 10 µM (TK-10): < 10%; inhibition at 10 µM (U251): 24%; IC50 (A549 cell line): 11.9 ± 0.92 µM; IC50 (HCT-116 cell line): 7.05 ± 0.72 µM; IC50 (WI-38 cell line): 130 ± 9.22 µM; S. I. WI-38/A549 (WI-38 cell line): 11.0
Cc1nc(-c2ccc(F)cc2)ccc1NC(=O)Nc1ccc2c(c1)OCO2 [Compound 5d, 1-(Benzo[d][1, 3]dioxol-5-yl)-3-(6-(4-fluorophenyl)-2-methylpyridin-3-yl)urea]	< 10	< 10	< 10	17	< 10	< 10	< 10	< 10	14	23	< 10	< 10	< 10	< 10	< 10	< 10	< 10	< 10	< 10	< 10	inhibition at 10 µM (SNB-19): < 10%; inhibition at 10 µM (TK-10): < 10%; inhibition at 10 µM (U251): < 10%; IC50 (A549 cell line): 12.5 ± 0.85 µM; IC50 (HCT-116 cell line): 10.4 ± 0.84 µM; IC50 (WI-38 cell line): 107 ± 7.03 µM; S. I. WI-38/A549 (WI-38 cell line): 8.6
COc1ccc(NC(=O)Nc2ccc(-c3ccc(Cl)cc3)nc2C)cc1 [Compound 5f, 1-(6-(4-Chlorophenyl)-2-methylpyridin-3-yl)-3-(4-methoxyphenyl) urea]	< 10	< 10	< 10	21	< 10	12	< 10	< 10	23	13	< 10	23	< 10	< 10	< 10	< 10	< 10	< 10	< 10	13	inhibition at 10 µM (SNB-19): < 10%; inhibition at 10 µM (TK-10): < 10%; inhibition at 10 µM (U251): < 10%; IC50 (A549 cell line): 7.9 ± 0.54 µM; IC50 (HCT-116 cell line): 12.6 ± 1.08 µM; IC50 (WI-38 cell line): 116 ± 9.61 µM; S. I. WI-38/A549 (WI-38 cell line): 14.7
CCOC(=O)c1ccc(NC(=O)Nc2ccc(-c3cccs3)nc2C)cc1 [Compound 5j, Ethyl 4-(3-(2-methyl-6-(thiophen-2-yl)pyridin-3-yl)ureido)benzoate]	12	< 10	< 10	27	30	10	< 10	< 10	19	42	< 10	21	< 10	13	17	< 10	< 10	< 10	< 10	< 10	inhibition at 10 µM (SNB-19): < 10%; inhibition at 10 µM (TK-10): < 10%; inhibition at 10 µM (U251): 21%; IC50 (A549 cell line): 8.04 ± 0.59 µM; IC50 (HCT-116 cell line): 9.38 ± 0.67 µM; IC50 (WI-38 cell line): 107 ± 7.02 µM; S. I. WI-38/A549 (WI-38 cell line): 13.3
